US20110118118A1, “HERBICIDALLY ACTIVE PHENYL-SUBSTITUTED PYRIDAZINONES” (BAYER CROPSCIENCE AG, priority 2009, published 2011)

Experiments:
Experiment in all cases: Post-emergence herbicidal action against harmful plants
Type in all cases: in vivo
Conditions in all cases: application rate 320 g/ha, rated visually after about 3 weeks vs untreated controls
Abutilon theophrasti = system: Abutilon theophrasti
Protocol: (§1) 2. Post-Emergence Herbicidal Action Against Harmful Plants Seeds of monocotyledonous and dicotyledonous weed and crop plants are placed in sandy loam in wood-fiber pots, covered with soil and cultivated in a greenhouse under good growth conditions. 2 to 3 weeks after sowing, the test plants are treated at the one-leaf stage. The compounds according to the invention, formulated in the form of wettable powders (WP) or as emulsion concentrates (EC), are then sprayed as aqueous suspension or emulsion at a water application rate of 600 to 800 l/ha (converted) with the addition of 0.2% of wetting agent onto the green parts of the plants. After the test plants have been kept in the greenhouse under optimum growth conditions for about 3 weeks, the activity of the preparations is rated visually in comparison to untreated controls (herbicidal activity in percent (%): 100% activity=the plants have died, 0% activity=like control plants). Here, for example, the compounds Nos. I-1-c-2 and I-1-c-3 (Table 33 in each case) each show, at an application rate of 320 g/ha, an activity of at least 90% against Alopecurus myosuroides, Amaranthus retroflexus, Matricaria inodora, Pharbitis purpureum and Viola tricolor.

Fallopia convolvulus = system: Fallopia convolvulus
Protocol: as §1

Lolium multiflorum = system: Lolium multiflorum
Protocol: as §1

Veronica persica = system: Veronica persica
Protocol: as §1

CCc1cc(Cl)cc(Br)c1-c1c(O)c(C)nn(C)c1=O [I-1-a-3]
100%: herbicidal activity in percent against Abutilon theophrasti (Abutilon theophrasti) | herbicidal activity in percent against Fallopia convolvulus (Fallopia convolvulus) | herbicidal activity in percent against Lolium multiflorum (Lolium multiflorum) | herbicidal activity in percent against Veronica persica (Veronica persica)

CCc1cc(Cl)cc(Br)c1-c1c(OC(=O)C(C)C)c(C)nn(C)c1=O [I-1-b-2]
100%: herbicidal activity in percent against Abutilon theophrasti (Abutilon theophrasti) | herbicidal activity in percent against Fallopia convolvulus (Fallopia convolvulus) | herbicidal activity in percent against Lolium multiflorum (Lolium multiflorum) | herbicidal activity in percent against Veronica persica (Veronica persica)
